Laboratory results taken from patent US9085555B2, “Complement pathway modulators and uses thereof” (priority 2011, dated 2015).

Target: Factor D (Homo sapiens (Human), UniProt P00746)
Assay: biochemical
Assay type: biochemical
Conditions: read-out: IC50

Sequence of Factor D (P00746 26-253): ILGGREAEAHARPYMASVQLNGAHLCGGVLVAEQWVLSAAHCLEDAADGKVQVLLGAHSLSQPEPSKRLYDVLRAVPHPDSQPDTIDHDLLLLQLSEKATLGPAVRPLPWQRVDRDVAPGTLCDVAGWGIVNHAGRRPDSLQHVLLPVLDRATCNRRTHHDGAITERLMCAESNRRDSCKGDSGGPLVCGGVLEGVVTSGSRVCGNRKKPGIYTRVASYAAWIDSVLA

`CCc1cc2c(C(N)=O)nn(CC(=O)N3[C@@H]4C[C@@H]4C[C@H]3C(=O)Nc3cccc(Br)c3F)c2cn1` [Example 671, 1-{2-[(1R,3S,5R)-3-(3-Bromo-2-fluoro-phenylcarbamoyl)-2-aza-bicyclo[3.1.0]hex-2-yl]-2-oxo-ethyl}-5-ethyl-1H-pyrazolo[3,4-c]pyridine-3-carboxylic acid amide] showed an IC50 of 77 nM.

With `NC(=O)n1cc(NC(=O)N2CCC[C@H]2C(=O)Nc2cccc(OC(F)(F)F)c2)c2ccc(O)cc21` [Example 369, (S)-Pyrrolidine-1,2-dicarboxylic acid 1-[(1-carbamoyl-6-hydroxy-1H-indol-3-yl)-amide]2-[(3-trifluoromethoxy-phenyl)-amide]] the IC50 was 850 nM.

For `NC(=O)n1cc(NC(=O)N2CCC[C@H]2C(=O)Nc2cccc(OC(F)(F)F)c2)c2ccc(Br)cc21` [Example 286, (S)-Pyrrolidine-1,2-dicarboxylic acid 1-[(6-bromo-1-carbamoyl-1H-indol-3-yl)-amide] 2-[(3-trifluoromethoxy-phenyl)-amide]], the IC50 was 2650 nM.

Compound `NC(=O)n1cc(NC(=O)N2C[C@H](F)C[C@H]2C(=O)NCc2cncc(C(F)(F)F)c2)c2ccccc21` [Example 305, (2S,4R)-4-Fluoro-pyrrolidine-1,2-dicarboxylic acid 1-[(1-carbamoyl-1H-indol-3-yl)-amide] 2-[(5-trifluoromethyl-pyridin-3-ylmethyl)-amide]] has an IC50 of 1350 nM.

`NC(=O)n1cc(NC(=O)N2CCC[C@H]2C(=O)Nc2cccc(OC(F)(F)F)c2)c2cc(O)ccc21` [Example 370, (S)-Pyrrolidine-1,2-dicarboxylic acid 1-[(1-carbamoyl-5-hydroxy-1H-indol-3-yl)-amide]2-[(3-trifluoromethoxy-phenyl)-amide]] was tested, and the IC50 was 95 nM.

Work on `O=C(NCc1cccc(Cl)c1F)[C@@H]1C[C@H]2C[C@H]2N1C(=O)Cn1cc(C(=O)C(F)(F)F)c2ccccc21` [Example 495, (1R,3S,5R)-2-{2-[3-(2,2,2-Trifluoro-acetyl)-indol-1-yl]-acetyl}-2-aza-bicyclo[3.1.0] hexane-3-carboxylic acid 3-chloro-2-fluoro-benzylamide] yielded an IC50 of 19 nM.

`CO[C@H]1[C@@H](C(=O)NC2(c3cccc(Cl)c3F)CC2)N(C(=O)Cn2nc(C(N)=O)c3cnccc32)C[C@@H]1F` [Example 660, 1-(2-{(2S,3S,4S)-2-[1-(3-Chloro-2-fluoro-phenyl)-cyclopropylcarbamoyl]-4-fluoro-3-methoxy-pyrrolidin-1-yl}-2-oxo-ethyl)-1H-pyrazolo[4,3-c]pyridine-3-carboxylic acid amide] was tested, and the IC50 was 16 nM.

Compound `NC(=O)c1nn(CC(=O)N2[C@@H]3C[C@@H]3C[C@H]2C(=O)Nc2cccc(OC(F)(F)F)c2F)c2cnccc12` [Example 724] has an IC50 of 61 nM.

Compound `NC(=O)n1cc(NC(=O)N2C[C@@H](N)C[C@H]2C(=O)NCC2CCCCC2)c2ccccc21` [Example 74, (2S,4S)-4-Amino-pyrrolidine-1,2-dicarboxylic acid 1-[(1-carbamoyl-1H-indol-3-yl)-amide] 2-cyclohexylmethyl-amide] has an IC50 of 3650 nM.

With `NC(=O)n1cc(NC(=O)N2C[C@H](F)C[C@H]2C(=O)NCc2cccc(C(=O)O)c2)c2ccccc21` [Example 24] the IC50 was 1700 nM.

Compound `NC(=O)n1cc(NC(=O)N2C3CC3C[C@H]2C(=O)Nc2ccncc2F)c2ccccc21` (stereo partly drawn) [Example 185, (1R,3S,5R)-2-Aza-bicyclo[3.1.0]hexane-2,3-dicarboxylic acid 2-[(1-carbamoyl-1H-indol-3-yl)-amide] 3-[(3-fluoro-pyridin-4-yl)-amide]] has an IC50 of 550 nM.

For `COC(=O)c1ccc2c(c1)c(C(C)=O)cn2CC(=O)N1[C@@H]2C[C@@H]2C[C@H]1C(=O)NCc1cccc(Cl)c1F` [Example 540, 3-Acetyl-1-{2-[(1R,3S,5R)-3-(3-chloro-2-fluoro-benzylcarbamoyl)-2-aza-bicyclo[3.1.0]hex-2-yl]-2-oxo-ethyl}-1H-indole-5-carboxylic acid methyl ester], the IC50 was 236 nM.

With `NC(=O)n1cc(NC(=O)N2C[C@H](F)C[C@H]2C(=O)Nc2ncccc2F)c2ccccc21` [Example 327, (2S,4R)-4-Fluoro-pyrrolidine-1,2-dicarboxylic acid 1-[(1-carbamoyl-1H-indol-3-yl)-amide] 2-[(3-fluoro-pyridin-2-yl)-amide]] the IC50 was 1700 nM.

Work on `NC(=O)n1cc(NC(=O)N2C[C@H](F)C[C@H]2C(=O)NCc2ccncc2)c2ccccc21` [Example 6, (2S,4R)-4-Fluoro-pyrrolidine-1,2-dicarboxylic acid 1-[(1-carbamoyl-1H-indol-3-yl)-amide] 2-[(pyridin-4-ylmethyl)-amide]] yielded an IC50 of 2100 nM.

Compound `COC[C@@]12C[C@@H]1N(C(=O)Nc1cn(C(N)=O)c3ccccc13)[C@H](C(=O)NCc1cccc(Cl)c1F)C2` [Example 214, (1S,3S,5R)-5-Methoxymethyl-2-aza-bicyclo[3.1.0]hexane-2,3-dicarboxylic acid 2-[(1-carbamoyl-1H-indol-3-yl)-amide] 3-(3-chloro-2-fluoro-benzylamide)] has an IC50 of 1570 nM.

Compound `C[C@H](NC(=O)[C@@H]1[C@H](O)CCN1C(=O)Nc1cn(C(N)=O)c2ccccc12)c1cccc(Cl)c1F` (single isomer, unassigned) [Example 365] has an IC50 of 45 nM.
